In US9593149B2, “Amylin and calcitonin receptor agonist” (Novo Nordisk A/S, priority 2014, dated 2017):
pEC50, pIC50: −log10 of the molar value. Converted amounts (≈) assume the structure as drawn. Numbered stars: 1 amine (or outer) side, 2 acyl side, 3 side chain; on linkers, the order of the positions; unused ones are H or OH. Side chains are listed from the residue outwards. Peptide text beside a SMILES is read from it. * marks the point of attachment. C20 diacid = O=C(O)CCCCCCCCCCCCCCCCCCC(=O)*; C18 diacid = O=C(O)CCCCCCCCCCCCCCCCC(=O)*; γGlu = O=C(O)[C@H](CCC(=O)[*:2])N[*:1]

Columns and labels:
[1] = target: T1, human calcitonin (a) receptor, BHK570 cells (Homo sapiens, UniProt P30988); assay: Assay (II)a functional CRE-luciferase assay with albumin, human calcitonin receptor; assay type: cell-based; settings: Tested with HSA; read-out: hCTR funct. EC50
T1 construct: host or cells: BHK570
T1 sequence (P30988 25-474): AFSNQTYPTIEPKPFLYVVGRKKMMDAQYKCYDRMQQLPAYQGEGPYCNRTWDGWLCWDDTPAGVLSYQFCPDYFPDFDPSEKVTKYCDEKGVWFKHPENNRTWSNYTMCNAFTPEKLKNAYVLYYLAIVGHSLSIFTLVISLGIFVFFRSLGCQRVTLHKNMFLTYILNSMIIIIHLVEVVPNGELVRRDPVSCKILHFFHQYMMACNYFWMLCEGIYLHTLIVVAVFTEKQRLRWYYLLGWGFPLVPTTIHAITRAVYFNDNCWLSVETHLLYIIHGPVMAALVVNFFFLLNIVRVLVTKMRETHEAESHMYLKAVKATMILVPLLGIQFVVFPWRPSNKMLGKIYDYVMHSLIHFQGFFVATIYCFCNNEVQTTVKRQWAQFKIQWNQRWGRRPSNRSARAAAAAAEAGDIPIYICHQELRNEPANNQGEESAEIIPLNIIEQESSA
Description: (§1) Assay(II)a—Human Calcitonin and Amylin Receptor Assay
(§2) 1. Luciferase Assay Outline
(§3) Activation of calcitonin and amylin (co-expression of calcitonin receptor and receptor activity modifying proteins (RAMP)) receptors lead to increased intracellular concentrations of cAMP. Consequently, transcription is activated by promoters containing multiple copies of the cAMP response element (CRE). It is thus possible to measure amylin activity by the use of a CRE luciferase reporter gene introduced into BHK cells also expressing calcitonin or amylin receptors.
(§4) 2. Construction of Calcitonin (a)—and Amylin 3(a)—Receptor/CRE-Luc Cell Line.
(§5) A BHK570 cell line was stably transfected with the human calcitonin receptor and a CRE-responsive luciferase reporter gene. The cell line was further transfected with RAMP-3, using standard methods. This turns the calcitonin receptor into an amylin 3(a) receptor. Methotrexate, Neomycin, and Hygromycin are selection markers for luciferase, the calcitonin receptor, and RAMP-3, respectively.
(§6) To perform activity assays, BHK calcitonin (a) receptor- or amylin 3(a)-receptor/CRE-luc cells were seeded in white 96 well culture plates at a density of about 20.000 cells/well. […] After incubation overnight at 37° C. and 5% CO2, the growth medium was replaced by 50 μl/well assay medium (DMEM (without phenol red), Glutamax™, 10% FBS, and 10 mM Hepes, pH 7.4). Further, 50 μl/well of standard or sample in assay buffer were added.
(§7) After 3 hours incubation at 37° C. and 5% CO2, the assay medium with standard or sample were removed and replaced by 100 μl/well PBS. Further, 100 μl/well LucLite™ was added. The plates were sealed and incubated at room temperature for 30 minutes. Finally, luminescence was tested on a TopCounter (Packard) in SPC (single photon counting) mode.

[2] = target: T2, human amylin 3(a) receptor (human calcitonin receptor + RAMP-3), BHK570 cells (Homo sapiens, UniProt O60896+P30988); assay: Assay (II)a functional CRE-luciferase assay with albumin, human amylin receptor; assay type: cell-based; settings: Tested with HSA; read-out: hAmylin-R funct. EC50
T2 construct: host or cells: BHK570
T2 sequence (O60896 24-148, one chain of several): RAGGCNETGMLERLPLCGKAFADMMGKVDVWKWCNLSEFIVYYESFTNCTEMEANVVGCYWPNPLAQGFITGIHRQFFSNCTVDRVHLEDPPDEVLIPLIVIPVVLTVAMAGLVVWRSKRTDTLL
Description: as §1, §2, §3, §4, §5, §6, §7

[3] = target: T2, human amylin 3(a) receptor (human calcitonin receptor + RAMP-3), BHK570 cells; assay: Assay (II)b functional CRE-luciferase assay without albumin, human amylin receptor; assay type: cell-based; settings: Tested without HSA; read-out: hAmylin-R funct. EC50
Method in brief: (§8)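 BHK570 cells stably expressing human calcitonin receptor with CRE-luciferase reporter, plus RAMP-3 for the amylin 3(a) line. Cells stimulated 3 hours at 37 °C in albumin-free assay medium (0.1% ovalbumin, 10 mM Hepes pH 7.4); cAMP-driven luciferase read by luminescence.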

[4] = target: T1, human calcitonin (a) receptor, BHK570 cells; assay: Assay (II)b functional CRE-luciferase assay without albumin, human calcitonin receptor; assay type: cell-based; settings: Tested without HSA; read-out: hCTR funct. EC50
Method in brief: as §8

[5] = Assay (IV) determination of solubility; assay type: physicochemical
Method: Assay (IV)—Determination of Solubility
The mimylin peptide was dissolved in water at ˜500 nmol/ml and mixed 1:1 with a series of buffers (100 mM glycylglycine pH 3.0, 100 mM glycylglycine pH 4.0, 100 mM glycylglycine pH 5.0, 100 mM bistrispropane pH 6.0, 100 mM bistrispropane pH 6.5, 100 mM bistrispropane pH 7.0, 100 mM bistrispropane pH 7.5, 100 mM bistrispropane pH 8.0).

[6] = target: T3, rat calcitonin receptor (Rattus norvegicus, UniProt P32214); assay: Assay (VIII) binding to the rat calcitonin receptor; settings: membranes; read-out: rCT-R binding IC50
T3 construct: expressed in transfected cells; host or cells: BHK tk'ts 13 (transient, FuGENE 6)
T3 sequence (P32214 25-479 isoform P32214-2 limits assumed): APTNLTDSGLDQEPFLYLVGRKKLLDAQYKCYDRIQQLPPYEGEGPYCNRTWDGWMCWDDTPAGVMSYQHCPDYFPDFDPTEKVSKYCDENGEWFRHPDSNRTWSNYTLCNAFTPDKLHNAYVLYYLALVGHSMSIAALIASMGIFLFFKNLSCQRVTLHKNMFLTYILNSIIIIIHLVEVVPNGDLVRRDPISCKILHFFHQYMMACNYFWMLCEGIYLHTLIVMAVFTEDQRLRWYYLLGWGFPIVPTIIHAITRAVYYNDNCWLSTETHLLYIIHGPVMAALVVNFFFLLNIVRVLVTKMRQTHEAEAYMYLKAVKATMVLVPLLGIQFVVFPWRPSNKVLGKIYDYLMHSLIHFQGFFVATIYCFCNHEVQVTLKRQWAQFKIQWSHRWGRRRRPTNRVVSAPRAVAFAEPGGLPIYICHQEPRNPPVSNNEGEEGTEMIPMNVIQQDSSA
Method in brief: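 Competition binding on membranes from BHK tk'ts 13 cells transiently transfected with rat calcitonin receptor, otherwise run as the human receptor assay. Plates washed in cold HBSS, lysed in 0.1 M NaOH/1% SDS and scintillation-counted. IC50 from one-site competition fit as affinity measure.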

[7] = target: T4, human amylin receptor (human calcitonin receptor + human RAMP3), BHK tk'ts 13 cells (Homo sapiens, UniProt O60896+P30988); assay: Assay (Va) binding to the human amylin receptor (whole cell); settings: read-out: hAmylin-R binding IC50
T4 construct: expressed in transfected cells; host or cells: BHK tk'ts 13
T4 sequence (O60896 24-148, one chain of several): as the sequence (O60896 24-148, one chain of several) above
Method: The day before the assay the cells were Seeded into Poly-D-Lysin coated 384W Opaque White, BD BioCoat plates (10000 cells/well) and Incubated overnight at 37° C., 5% CO2, 95% humidity.

pEC50 [1]	pEC50 [2]	pEC50 [3]	pEC50 [4]	solubility at 18 h ([5]; bistrispropane buffer, pH 6.5)	solubility at 18 h ([5]; bistrispropane buffer, pH 7.5)	solubility at 18 h ([5]; bistrispropane buffer, pH 6.0)	solubility at 18 h ([5]; bistrispropane buffer, pH 7.0)	solubility at 18 h ([5]; bistrispropane buffer, pH 8.0)	solubility at 18 h ([5]; glycylglycine buffer, pH 3.0)	solubility at 18 h ([5]; glycylglycine buffer, pH 4.0)	solubility at 18 h ([5]; glycylglycine buffer, pH 5.0)	pIC50 [6]	pIC50 [7]	SMILES
10.52	10.13	10.41	10.47	≥ 200 µM	≥ 200 µM	≥ 200 µM	≥ 200 µM	≥ 200 µM	≥ 200 µM	≥ 200 µM	≥ 200 µM	9.94	–	CC(C)C[C@H](NC(=O)[C@H](C)NC(=O)[C@H](C)NC(=O)[C@@H](NC(=O)[C@H](CO)NC(=O)[C@H](CC(C)C)NC(=O)[C@H](CCCCNC(=O)CC[C@H](NC(=O)CCCCCCCCCCCCCCCCCCC(=O)O)C(=O)O)NC(=O)[C@H](CO)NC(=O)[C@H](C)N)[C@@H](C)O)C(=O)NCC(=O)N[C@@H](CCCNC(=N)N)C(=O)N[C@@H](CC(C)C)C(=O)N[C@@H](CO)C(=O)N[C@@H](C)C(=O)N[C@@H](CCC(=O)O)C(=O)N[C@@H](CC(C)C)C(=O)N[C@@H](Cc1c[nH]cn1)C(=O)N[C@@H](CCC(=O)O)C(=O)N[C@@H](CC(C)C)C(=O)N[C@@H](C)C(=O)N[C@H](C(=O)N[C@@H](CC(C)C)C(=O)N1CCC[C@H]1C(=O)N[C@@H](CCCNC(=N)N)C(=O)N[C@H](C(=O)N[C@@H](CCC(=O)O)C(=O)N[C@H](C(=O)NCC(=O)N[C@@H](CO)C(=O)NCC(=O)N[C@@H](CO)C(=O)N1CCC[C@H]1C(N)=O)[C@@H](C)O)[C@@H](C)O)[C@@H](C)O [compound 52, [des1, 4K(C20 diacid-gGlu), 30S, 31G]mimylin] (H-ASK([γGlu-C20 diacid])LSTAALGRLSAELHELATLPRTETGSGSP-NH2; N-terminus assumed)
11.05	10.72	10.48	10.55	≥ 200 µM	≥ 200 µM	≥ 200 µM	≥ 200 µM	≥ 200 µM	≥ 200 µM	≥ 200 µM	≥ 200 µM	–	9.19	CC(C)C[C@H](NC(=O)[C@H](CCC(=O)O)NC(=O)[C@H](Cc1c[nH]cn1)NC(=O)[C@H](CC(C)C)NC(=O)[C@H](CCC(=O)O)NC(=O)[C@H](C)NC(=O)[C@H](CO)NC(=O)[C@H](CC(C)C)NC(=O)[C@H](CCCNC(=N)N)NC(=O)CNC(=O)[C@H](CC(C)C)NC(=O)[C@@H](NC(=O)[C@H](C)NC(=O)[C@@H](NC(=O)[C@@H](NC(=O)[C@H](CC(C)C)NC(=O)[C@H](CCC(=O)O)NC(=O)[C@H](CO)NC(=O)[C@H](C)NC(=O)CC[C@H](NC(=O)CCCCCCCCCCCCCCCCC(=O)O)C(=O)O)[C@@H](C)O)[C@@H](C)O)C(C)C)C(=O)N[C@@H](C)C(=O)N[C@H](C(=O)N[C@@H](CC(C)C)C(=O)N1CCC[C@H]1C(=O)N[C@@H](CCCNC(=N)N)C(=O)N[C@H](C(=O)N[C@@H](CCC(=O)O)C(=O)N[C@H](C(=O)NCC(=O)N[C@@H](CO)C(=O)NCC(=O)N[C@@H](CO)C(=O)N1CCC[C@H]1C(N)=O)[C@@H](C)O)[C@@H](C)O)[C@@H](C)O [compound 85, [N-terminal(C18 diacid-gGlu), des1, 6T, 9V, 30S, 31G]mimylin] ({C18 diacid-γGlu}-ASELTTAVLGRLSAELHELATLPRTETGSGSP-NH2)
10.31	10.28	10.66	10.62	1 µM (≈ 3.72 µg/mL)	–	–	–	–	≥ 200 µM	1 µM (≈ 3.72 µg/mL)	2 µM (≈ 7.44 µg/mL)	–	9.65	CC(C)C[C@H](NC(=O)CNC(=O)[C@H](CO)NC(=O)[C@H](C)NC(=O)CCCCCCCCCCCCCCCCCCC(=O)O)C(=O)N[C@@H](CO)C(=O)N[C@H](C(=O)N[C@@H](C)C(=O)N[C@@H](C)C(=O)N[C@@H](CC(C)C)C(=O)NCC(=O)N[C@@H](CCCNC(=N)N)C(=O)N[C@@H](CC(C)C)C(=O)N[C@@H](CO)C(=O)N[C@@H](CCC(N)=O)C(=O)N[C@@H](CCC(=O)O)C(=O)N[C@@H](CC(C)C)C(=O)N[C@@H](Cc1c[nH]cn1)C(=O)N[C@@H](CCC(=O)O)C(=O)N[C@@H](CC(C)C)C(=O)N[C@@H](CCC(N)=O)C(=O)N[C@H](C(=O)N[C@@H](Cc1ccc(O)cc1)C(=O)N1CCC[C@H]1C(=O)N[C@@H](CCCNC(=N)N)C(=O)N[C@H](C(=O)N[C@@H](CCC(=O)O)C(=O)N[C@H](C(=O)NCC(=O)N[C@@H](CO)C(=O)NCC(=O)N[C@H](C(=O)N[C@@H](Cc1ccc(O)cc1)C(N)=O)[C@@H](C)O)[C@@H](C)O)[C@@H](C)O)[C@@H](C)O)[C@@H](C)O [compound 111, [N-terminal(C20 diacid), des1, 4G, 15Q, 21Q, 23Y, 30S, 31G, 32T, 33Y]mimylin] ({C20 diacid}-ASGLSTAALGRLSQELHELQTYPRTETGSGTY-NH2)
